Assay results reported in patent publication US12102648B2, “Orally-bioavailable nucleoside analogs” (priority 2021, dated 2024).
Where two headings read alike, the source gives them in different places.

Assay: in vitro
Assay type: in vitro ADME
Details: human
Method in brief: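 Caco-2 monolayers cultured 19 days on inserts (TEER >600 […]); bidirectional A-to-B and B-to-A transport at 37° C over 90 min, samples quantified by LC/MS/MS. Papp, efflux ratio and recovery calculated; ER >2 flags potential efflux substrates.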

[1] = Caco-2 monolayer, apical to basolateral, 90-minute incubation, read-out: Papp, A-B
[2] = Caco-2 monolayer, basolateral to apical, 90-minute incubation, read-out: Papp, B-A
[3] = Caco-2 monolayer, ER>2 indicates potential efflux transporter substrate, read-out: ER (efflux ratio)

## CCCCCOC(=O)Nc1ncnn2c([C@]3(C#N)O[C@H](COC(=O)Cc4ccccc4)[C@@H](O)[C@H]3O)ccc12 [Compound 89, ((2R,3S,4R,5R)-5-cyano-3,4-dihydroxy-5-(4-(((pentyloxy)carbonyl)amino)pyrrolo[2,1-f][1,2,4]triazin-7-yl)tetrahydrofuran-2-yl)methyl 2-phenylacetate]
[1]
  Papp A→B at 90 min: 2.1 ×10⁻⁶ cm/s
[2]
  Papp B→A at 90 min: 6.6 ×10⁻⁶ cm/s
[3]
  efflux ratio at 90 min: 3.2

## CCCCCOC(=O)Nc1ncnn2c([C@]3(C#N)O[C@H](COC(=O)CC)[C@@H](O)[C@H]3O)ccc12 [Compound 91, ((2R,3S,4R,5R)-5-cyano-3,4-dihydroxy-5-(4-(((pentyloxy)carbonyl)amino)pyrrolo[2,1-f][1,2,4]triazin-7-yl)tetrahydrofuran-2-yl)methyl propionate]
[1]
  Papp A→B at 90 min: 1.9 ×10⁻⁶ cm/s
[2]
  Papp B→A at 90 min: 4.1 ×10⁻⁶ cm/s
[3]
  efflux ratio at 90 min: 2.1

## CCCCCOC(=O)Nc1ncnn2c([C@]3(C#N)O[C@H](COC(=O)C(C)C)[C@@H](O)[C@H]3O)ccc12 [Compound 92, ((2R,3S,4R,5R)-5-cyano-3,4-dihydroxy-5-(4-(((pentyloxy)carbonyl)amino)pyrrolo[2,1-f][1,2,4]triazin-7-yl)tetrahydrofuran-2-yl)methyl isobutyrate]
Caco-2
  Papp A→B at 90 min: 2.7 ×10⁻⁶ cm/s
  Papp B→A at 90 min: 4.6 ×10⁻⁶ cm/s
  efflux ratio at 90 min: 1.7

## CCCCCOC(=O)Nc1ncnn2c([C@]3(C#N)O[C@H](COC(=O)CC(C)C)[C@@H](O)[C@H]3O)ccc12 [Compound 93, ((2R,3S,4R,5R)-5-cyano-3,4-dihydroxy-5-(4-(((pentyloxy)carbonyl)amino)pyrrolo[2,1-f][1,2,4]triazin-7-yl)tetrahydrofuran-2-yl)methyl 3-methylbutanoate]
Caco-2
  Papp A→B at 90 min: 2.8 ×10⁻⁶ cm/s
  Papp B→A at 90 min: 1.5 ×10⁻⁶ cm/s
  efflux ratio at 90 min: 0.54

## CC(C)[C@H](N)C(=O)OC[C@H]1O[C@@](C#N)(c2ccc3c(NC(=O)[C@@H](N)Cc4ccc(F)cc4)ncnn23)[C@H](O)[C@@H]1O [Compound 94, ((2R,3S,4R,5R)-5-(4-((S)-2-amino-3-(4-fluorophenyl)propanamido)pyrrolo[2,1-f][1,2,4]triazin-7-yl)-5-cyano-3,4-dihydroxytetrahydrofuran-2-yl)methyl L-valinate]
Caco-2
  Papp A→B at 90 min: 0.07 ×10⁻⁶ cm/s
  Papp B→A at 90 min: 0.64 ×10⁻⁶ cm/s
  efflux ratio at 90 min: 9.1

## N#C[C@@]1(c2ccc3c(NC(=O)[C@@H](N)Cc4ccc(F)cc4)ncnn23)O[C@H](COC(=O)CC2CCCCC2)[C@@H](O)[C@H]1O [Compound 96, ((2R,3S,4R,5R)-5-(4-((S)-2-amino-3-(4-fluorophenyl)propanamido)pyrrolo[2,1-f][1,2,4]triazin-7-yl)-5-cyano-3,4-dihydroxytetrahydrofuran-2-yl)methyl 2-cyclohexylacetate]
Caco-2
  Papp A→B at 90 min: 0.45 ×10⁻⁶ cm/s
  Papp B→A at 90 min: 5.2 ×10⁻⁶ cm/s
  efflux ratio at 90 min: 12

## N#C[C@@]1(c2ccc3c(NC(=O)[C@@H](N)Cc4ccc(F)cc4)ncnn23)O[C@H](COC(=O)Cc2ccccc2)[C@@H](O)[C@H]1O [Compound 97, ((2R,3S,4R,5R)-5-(4-((S)-2-amino-3-(4-fluorophenyl)propanamido)pyrrolo[2,1-f][1,2,4]triazin-7-yl)-5-cyano-3,4-dihydroxytetrahydrofuran-2-yl)methyl 2-phenylacetate]
[1]
  Papp A→B at 90 min: 3.8 ×10⁻⁶ cm/s
[2]
  Papp B→A at 90 min: 6.6 ×10⁻⁶ cm/s
[3]
  efflux ratio at 90 min: 1.8

## CC(C)C(=O)OC[C@H]1O[C@@](C#N)(c2ccc3c(NC(=O)[C@@H](N)Cc4ccc(F)cc4)ncnn23)[C@H](O)[C@@H]1O [Compound 100, ((2R,3S,4R,5R)-5-(4-((S)-2-amino-3-(4-fluorophenyl)propanamido)pyrrolo[2,1-f][1,2,4]triazin-7-yl)-5-cyano-3,4-dihydroxytetrahydrofuran-2-yl)methyl isobutyrate]
Caco-2
  Papp A→B at 90 min: 0.03 ×10⁻⁶ cm/s
  Papp B→A at 90 min: 2.7 ×10⁻⁶ cm/s
  efflux ratio at 90 min: 92

## CC(C)CC(=O)OC[C@H]1O[C@@](C#N)(c2ccc3c(NC(=O)[C@@H](N)Cc4ccc(F)cc4)ncnn23)[C@H](O)[C@@H]1O [Compound 101, ((2R,3S,4R,5R)-5-(4-((S)-2-amino-3-(4-fluorophenyl)propanamido)pyrrolo[2,1-f][1,2,4]triazin-7-yl)-5-cyano-3,4-dihydroxytetrahydrofuran-2-yl)methyl 3-methylbutanoate]
Caco-2
  Papp A→B at 90 min: 0.07 ×10⁻⁶ cm/s
  Papp B→A at 90 min: 13 ×10⁻⁶ cm/s
  efflux ratio at 90 min: 175

## CC(C)[C@H](N)C(=O)OC[C@H]1O[C@@](C#N)(c2ccc3c(NC(=O)c4ccccc4)ncnn23)[C@H](O)[C@@H]1O [Compound 102, ((2R,3S,4R,5R)-5-(4-benzamidopyrrolo[2,1-f][1,2,4]triazin-7-yl)-5-cyano-3,4-dihydroxytetrahydrofuran-2-yl)methyl L-valinate]
Caco-2
  Papp A→B at 90 min: 0.02 ×10⁻⁶ cm/s
  Papp B→A at 90 min: 6.7 ×10⁻⁶ cm/s
  efflux ratio at 90 min: 280

## CC(=O)OC[C@H]1O[C@@](C#N)(c2ccc3c(NC(=O)c4ccccc4)ncnn23)[C@H](O)[C@@H]1O [Compound 103, ((2R,3S,4R,5R)-5-(4-benzamidopyrrolo[2,1-f][1,2,4]triazin-7-yl)-5-cyano-3,4-dihydroxytetrahydrofuran-2-yl)methyl acetate]
Caco-2
  Papp A→B at 90 min: 1.5 ×10⁻⁶ cm/s
  Papp B→A at 90 min: 12 ×10⁻⁶ cm/s
  efflux ratio at 90 min: 8

## N#C[C@@]1(c2ccc3c(NC(=O)c4ccccc4)ncnn23)O[C@H](COC(=O)Cc2ccccc2)[C@@H](O)[C@H]1O [Compound 105, ((2R,3S,4R,5R)-5-(4-benzamidopyrrolo[2,1-f][1,2,4]triazin-7-yl)-5-cyano-3,4-dihydroxytetrahydrofuran-2-yl)methyl 2-phenylacetate]
[1]
  Papp A→B at 90 min: 0.77 ×10⁻⁶ cm/s
[2]
  Papp B→A at 90 min: 1.4 ×10⁻⁶ cm/s
[3]
  efflux ratio at 90 min: 1.8

## CCC(=O)OC[C@H]1O[C@@](C#N)(c2ccc3c(NC(=O)c4ccccc4)ncnn23)[C@H](O)[C@@H]1O [Compound 107, ((2R,3S,4R,5R)-5-(4-benzamidopyrrolo[2,1-f][1,2,4]triazin-7-yl)-5-cyano-3,4-dihydroxytetrahydrofuran-2-yl)methyl propionate]
[1]
  Papp A→B at 90 min: 2.1 ×10⁻⁶ cm/s
[2]
  Papp B→A at 90 min: 7.5 ×10⁻⁶ cm/s
[3]
  efflux ratio at 90 min: 3.6

## CC(C)C(=O)OC[C@H]1O[C@@](C#N)(c2ccc3c(NC(=O)c4ccccc4)ncnn23)[C@H](O)[C@@H]1O [Compound 108, ((2R,3S,4R,5R)-5-(4-benzamidopyrrolo[2,1-f][1,2,4]triazin-7-yl)-5-cyano-3,4-dihydroxytetrahydrofuran-2-yl)methyl isobutyrate]
Caco-2
  Papp A→B at 90 min: 1.5 ×10⁻⁶ cm/s
  Papp B→A at 90 min: 2 ×10⁻⁶ cm/s
  efflux ratio at 90 min: 1.4

## CC(C)CC(=O)OC[C@H]1O[C@@](C#N)(c2ccc3c(NC(=O)c4ccccc4)ncnn23)[C@H](O)[C@@H]1O [Compound 109]
Caco-2
  Papp A→B at 90 min: 1.4 ×10⁻⁶ cm/s
  Papp B→A at 90 min: 1.3 ×10⁻⁶ cm/s
  efflux ratio at 90 min: 0.9

## CC(C)[C@H](N)C(=O)Nc1ncnn2c([C@]3(C#N)O[C@H](COC(=O)[C@@H](N)C(C)C)[C@@H](O)[C@H]3O)ccc12 [Compound 110, ((2R,3S,4R,5R)-5-(4-((S)-2-amino-3-methylbutanamido)pyrrolo[2,1-f][1,2,4]triazin-7-yl)-5-cyano-3,4-dihydroxytetrahydrofuran-2-yl)methyl L-valinate]
Caco-2
  Papp A→B at 90 min: 0.02 ×10⁻⁶ cm/s
  Papp B→A at 90 min: 0.33 ×10⁻⁶ cm/s
  efflux ratio at 90 min: 15

## CC(C)[C@H](N)C(=O)Nc1ncnn2c([C@]3(C#N)O[C@H](COC(=O)CC4CCCCC4)[C@@H](O)[C@H]3O)ccc12 [Compound 112, [(2R,3S,4R,5R)-5-{4-[(2S)-2-amino-3-methylbutanamido]pyrrolo[2,1-f][1,2,4]triazin-7-yl}-5-cyano-3,4-dihydroxyoxolan-2-yl]methyl 2-cyclohexylacetate]
Caco-2
  Papp A→B at 90 min: 0.14 ×10⁻⁶ cm/s
  Papp B→A at 90 min: 6.1 ×10⁻⁶ cm/s
  efflux ratio at 90 min: 44

## CC(C)[C@H](N)C(=O)Nc1ncnn2c([C@]3(C#N)O[C@H](COC(=O)Cc4ccccc4)[C@@H](O)[C@H]3O)ccc12 [Compound 113]
[1]
  Papp A→B at 90 min: 0.01 ×10⁻⁶ cm/s
[2]
  Papp B→A at 90 min: 4.8 ×10⁻⁶ cm/s
[3]
  efflux ratio at 90 min: 320

## CCC(=O)OC[C@H]1O[C@@](C#N)(c2ccc3c(NC(=O)[C@@H](N)C(C)C)ncnn23)[C@H](O)[C@@H]1O [Compound 115, ((2R,3S,4R,5R)-5-(4-((S)-2-amino-3-methylbutanamido)pyrrolo[2,1-f][1,2,4]triazin-7-yl)-5-cyano-3,4-dihydroxytetrahydrofuran-2-yl)methyl propionate]
Caco-2
  Papp A→B at 90 min: 0.04 ×10⁻⁶ cm/s
  Papp B→A at 90 min: 1.7 ×10⁻⁶ cm/s
  efflux ratio at 90 min: 47

## CC(C)C(=O)OC[C@H]1O[C@@](C#N)(c2ccc3c(NC(=O)[C@@H](N)C(C)C)ncnn23)[C@H](O)[C@@H]1O [Compound 116, [(2R,3S,4R,5R)-5-{4-[(2S)-2-amino-3-methylbutanamido]pyrrolo[2,1-f][1,2,4]triazin-7-yl}-5-cyano-3,4-dihydroxyoxolan-2-yl]methyl 2-methylpropanoate]
Caco-2
  Papp A→B at 90 min: 0.15 ×10⁻⁶ cm/s
  Papp B→A at 90 min: 1.2 ×10⁻⁶ cm/s
  efflux ratio at 90 min: 7.9

## CC(C)CC(=O)OC[C@H]1O[C@@](C#N)(c2ccc3c(NC(=O)[C@@H](N)C(C)C)ncnn23)[C@H](O)[C@@H]1O [Compound 117, [(2R,3S,4R,5R)-5-{4-[(2S)-2-amino-3-methylbutanamido]pyrrolo[2,1-f][1,2,4]triazin-7-yl}-5-cyano-3,4-dihydroxyoxolan-2-yl]methyl 3-methylbutanoate]
Caco-2
  Papp A→B at 90 min: 0.22 ×10⁻⁶ cm/s
  Papp B→A at 90 min: 3.3 ×10⁻⁶ cm/s
  efflux ratio at 90 min: 15

## CC(C)[C@H](N)C(=O)O[C@H]1[C@@H](O)[C@](C#N)(c2ccc3c(NC(=O)c4ccccc4)ncnn23)O[C@@H]1CO [Compound 128, (2R,3S,4R,5R)-5-(4-benzamidopyrrolo[2,1-f][1,2,4]triazin-7-yl)-5-cyano-4-hydroxy-2-(hydroxymethyl)tetrahydrofuran-3-yl L-valinate]
Caco-2
  Papp A→B at 90 min: 0.3 ×10⁻⁶ cm/s
  Papp B→A at 90 min: 6.4 ×10⁻⁶ cm/s
  efflux ratio at 90 min: 22
